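Assay format: 96-well plates, 48-hour exposure. GI50 marks 50% less growth. TGI marks complete inhibition of growth.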

Some test systems named below: 786-0 renal; K-562 leukemia; MALME-3M melanoma; NCI-H522 lung; OVCAR-4 ovarian; SNB-19 CNS; SNB-75 CNS; UACC-62 melanoma; SR leukemia.
Test in all cases: NCI anticancer screen, dose series, 48 h

As to `Cc1ccc(C2CC(c3ccc([N+](=O)[O-])cc3)=Nc3ccccc3S2)cc1` (stereo unspecified), the TGI with 786-0 renal is 28 µM; in the experiment on K-562 leukemia it was 41.5 µM; with MALME-3M melanoma it was more than 100 µM; in the experiment on NCI-H522 lung it was 73.3 µM; in the experiment on OVCAR-4 ovarian, more than 100 µM; in the experiment on SNB-19 CNS, more than 100 µM. Further, the TGI is 82 µM in the experiment with SNB-75 CNS and more than 100 µM in the experiment with UACC-62 melanoma.

Take `CCC1=C(C)/C(=C/c2[nH]c(C(Br)Br)c(CC)c2C)N=C1C(Br)Br`: the TGI in the experiment with 786-0 renal was more than 100 µM; with K-562 leukemia, more than 100 µM; in the experiment on MALME-3M melanoma, 76.4 µM; in the experiment with NCI-H522 lung, 38.1 µM; in the experiment on SNB-19 CNS, more than 100 µM; with SNB-75 CNS it was 90.8 µM. Further, the values for the TGI in the experiment on SR leukemia and in the experiment on UACC-62 melanoma were 32.6 µM and more than 100 µM, respectively.

Turning to `O=C(O)C1CCc2nnc(-c3ccccc3)n21` (stereo unspecified), the TGI in the experiment with 786-0 renal, in the experiment with K-562 leukemia, in the experiment with MALME-3M melanoma, in the experiment with NCI-H522 lung, with OVCAR-4 ovarian and in the experiment with SNB-19 CNS was more than 100 µM throughout. The TGI in the experiment on SNB-75 CNS, in the experiment with SR leukemia and in the experiment on UACC-62 melanoma was more than 100 µM throughout.

Regarding `COc1c(C2=NC(C(C)C)CO2)ccc2ccccc12` (stereo unspecified), the TGI in the experiment on 786-0 renal was more than 100 µM; in the experiment with K-562 leukemia, more than 100 µM; in the experiment with MALME-3M melanoma, more than 100 µM; with NCI-H522 lung, 99.8 µM; in the experiment on OVCAR-4 ovarian it was more than 100 µM; in the experiment on SNB-19 CNS it was more than 100 µM. Also, the TGI in the experiment with SNB-75 CNS and in the experiment on UACC-62 melanoma was more than 100 µM throughout.

Take `O=C1c2ccccc2C(=O)C2C1C1C(=O)c3ccccc3C(=O)C21` (stereo unspecified): the TGI in the experiment with 786-0 renal, with K-562 leukemia, in the experiment on MALME-3M melanoma, with NCI-H522 lung, with OVCAR-4 ovarian and with SNB-19 CNS was more than 100 µM throughout. For the same molecule, the TGI in the experiment on SNB-75 CNS and in the experiment with UACC-62 melanoma was more than 100 µM in each case.

In the case of `CC1(C)C(c2ccccc2)C12CCC1(C2=O)C(c2ccccc2)C1(C)C` (stereo unspecified), the TGI in the experiment with 786-0 renal is 66.2 µM; in the experiment with K-562 leukemia it was 38.4 µM; in the experiment with MALME-3M melanoma it was 72.5 µM; in the experiment with NCI-H522 lung, 30.5 µM; with OVCAR-4 ovarian it was more than 100 µM; in the experiment on SNB-19 CNS it was 76.5 µM. Besides, the TGI in the experiment on SNB-75 CNS was 90.1 µM; in the experiment with UACC-62 melanoma, more than 100 µM.

Regarding `Cc1c(C(=O)CC(=O)C(=O)Nc2c(C(C)C)cccc2C(C)C)[n+](=O)c2ccccc2n1[O-]`, the TGI in the experiment on 786-0 renal came to 22.7 µM; with K-562 leukemia, 31.1 µM; in the experiment with MALME-3M melanoma it was 18.8 µM; with NCI-H522 lung, 5.83 µM; in the experiment with OVCAR-4 ovarian, 15.5 µM; in the experiment on SNB-19 CNS it was 37.9 µM. Further, the TGI in the experiment on SNB-75 CNS turned out to be 31.4 µM; with UACC-62 melanoma, 22.3 µM.

Consider `O=S1CSCS1` (stereo unspecified), for which the TGI in the experiment with 786-0 renal, with K-562 leukemia, with MALME-3M melanoma, in the experiment with NCI-H522 lung, in the experiment with OVCAR-4 ovarian and with SNB-19 CNS was more than 100 µM throughout. For the same molecule, the TGI in the experiment with SNB-75 CNS, in the experiment with SR leukemia and with UACC-62 melanoma was more than 100 µM each time.

For the molecule `CCOC(=O)c1cc(/C=C/C(C)=C/C(=O)OC)oc1-c1ccccc1`, the TGI in the experiment on 786-0 renal, with K-562 leukemia, in the experiment on MALME-3M melanoma, in the experiment on NCI-H522 lung, in the experiment on OVCAR-4 ovarian and in the experiment on SNB-19 CNS was more than 100 µM throughout. Moreover, the TGI in the experiment with UACC-62 melanoma was more than 100 µM.

In the case of `O=C(c1ccccc1)C(c1ccccc1)C1(O)C(=O)Nc2ccccc21` (stereo unspecified), the TGI in the experiment with 786-0 renal, with K-562 leukemia, with MALME-3M melanoma, with NCI-H522 lung, in the experiment on OVCAR-4 ovarian and in the experiment on SNB-19 CNS was more than 100 µM each time. The TGI with SNB-75 CNS and with UACC-62 melanoma was more than 100 µM each time.

For the molecule `CCCN(CCCN)/[N+]([O-])=N\O`, the TGI in the experiment with 786-0 renal, in the experiment with K-562 leukemia, in the experiment with MALME-3M melanoma, in the experiment with NCI-H522 lung, in the experiment with OVCAR-4 ovarian and in the experiment with SNB-19 CNS was more than 100 µM each time. Besides, the TGI with SNB-75 CNS was more than 100 µM; with SR leukemia, more than 100 µM; in the experiment on UACC-62 melanoma, 0.831 µM.

Regarding `Cc1nc2ccccc2c(=O)n1/N=C(\N=Nc1cc(Cl)ccc1Cl)c1cccc(-c2ccco2)c1`, the TGI in the experiment on 786-0 renal is more than 100 µM; with K-562 leukemia, more than 10 µM; in the experiment on MALME-3M melanoma it was more than 100 µM; in the experiment with OVCAR-4 ovarian, more than 100 µM; in the experiment with SNB-19 CNS, more than 100 µM; in the experiment on SNB-75 CNS, more than 100 µM. In the experiment on UACC-62 melanoma, the TGI was more than 100 µM.

As for `COc1cc(=O)oc(/C=C/C=O)c1C`, the TGI in the experiment on 786-0 renal was 42 µM; with K-562 leukemia, more than 100 µM; in the experiment on MALME-3M melanoma it was 39.4 µM; in the experiment with NCI-H522 lung, 35.3 µM; in the experiment with OVCAR-4 ovarian, 32.5 µM; with SNB-19 CNS, 28.5 µM. The TGI in the experiment with SNB-75 CNS turned out to be 32.8 µM; in the experiment on SR leukemia, 7.6 µM; in the experiment on UACC-62 melanoma, 32.8 µM.

Consider `COc1ccc(C2=Nc3ccccc3SC(C)C2)cc1` (stereo unspecified), for which the TGI is more than 100 µM in the experiment with 786-0 renal; 83.3 µM with K-562 leukemia; more than 100 µM in the experiment on MALME-3M melanoma; more than 100 µM with NCI-H522 lung; more than 100 µM in the experiment with OVCAR-4 ovarian; more than 100 µM with SNB-19 CNS. The TGI with SNB-75 CNS and in the experiment on UACC-62 melanoma was more than 100 µM in each case.

Turning to `N=CCCN(CCC=N)c1ccc(/C=C2\CN(NC(=O)c3ccc(Cl)cc3)C(c3ccccc3)=N2)cc1`, the TGI in the experiment with 786-0 renal, with K-562 leukemia, with MALME-3M melanoma, in the experiment on OVCAR-4 ovarian, with SNB-19 CNS and with SNB-75 CNS was more than 100 µM in each case. This molecule also returned a TGI in the experiment with UACC-62 melanoma of more than 100 µM.

Consider `CC(=O)[CH-]C(=O)c1ccccc1.CC(=O)[CH-]C(=O)c1ccccc1.COc1cccc([O-])c1[O-].[Ti+4]`, for which the GI50 was 49 µM in the experiment on 786-0 renal; 31.6 µM in the experiment on K-562 leukemia; 33.4 µM in the experiment with MALME-3M melanoma; 17.2 µM in the experiment on NCI-H522 lung; 54.3 µM in the experiment with OVCAR-4 ovarian; 64.3 µM with SNB-19 CNS. Moreover, the GI50 with SNB-75 CNS is 43.5 µM; with UACC-62 melanoma it was 39.9 µM. The TGI was more than 100 µM in the experiment with 786-0 renal; more than 100 µM with K-562 leukemia; more than 100 µM with MALME-3M melanoma; 31.7 µM in the experiment on NCI-H522 lung; more than 100 µM with OVCAR-4 ovarian; more than 100 µM in the experiment with SNB-19 CNS. Also, the TGI in the experiment on SNB-75 CNS and with UACC-62 melanoma was more than 100 µM in each case.

With `CN1C(OCc2ccccc2)c2c(ccc3c2OCO3)C2C=Cc3cc4c(cc3C21)OCO4` (stereo unspecified), the TGI in the experiment on 786-0 renal was determined as 2.65 µM; in the experiment with MALME-3M melanoma it was 2.52 µM; in the experiment on NCI-H522 lung, 2.16 µM; in the experiment on OVCAR-4 ovarian it was 3.06 µM; in the experiment on SNB-19 CNS it was 3.06 µM; in the experiment with SNB-75 CNS, 2.71 µM. For the same molecule, the TGI in the experiment with UACC-62 melanoma was determined as 2.46 µM.

Take `CC1(C)CCC[C@@]2(C)C1C[C@H](O)[C@@]1(C)O[C@@](C)([C@H](O)CO)CCC21` (stereo partly specified): the TGI in the experiment on 786-0 renal was more than 100 µM; with K-562 leukemia, more than 100 µM; in the experiment with MALME-3M melanoma, more than 100 µM; with NCI-H522 lung, 89.8 µM; in the experiment on OVCAR-4 ovarian it was more than 100 µM; in the experiment on SNB-19 CNS, more than 100 µM. Further, the TGI was found to be 58.9 µM with SNB-75 CNS and 96.1 µM with UACC-62 melanoma.

`CN(C)c1ccc2c(c1)CN1C(=O)c3ccccc3C1=N2`: the GI50 was more than 100 µM with 786-0 renal; more than 100 µM with MALME-3M melanoma; 36.6 µM in the experiment with NCI-H522 lung; more than 100 µM in the experiment on OVCAR-4 ovarian; more than 100 µM in the experiment on SNB-19 CNS; more than 100 µM in the experiment with SNB-75 CNS. Further, the GI50 in the experiment with SR leukemia and in the experiment with UACC-62 melanoma was more than 100 µM each time. In addition, the TGI in the experiment with 786-0 renal, in the experiment on MALME-3M melanoma, with NCI-H522 lung, in the experiment on OVCAR-4 ovarian, in the experiment with SNB-19 CNS and with SNB-75 CNS was more than 100 µM throughout. Moreover, the TGI with SR leukemia and in the experiment with UACC-62 melanoma was more than 100 µM throughout.

As to `COc1ccc(CN2C(=O)C(Cc3cc(OC)c(OC)c(C)c3OC)NC(=O)/C2=C/c2cc(OC)c(OC)c(C)c2OC)cc1` (stereo unspecified), the TGI in the experiment with 786-0 renal is more than 100 µM; in the experiment on K-562 leukemia, more than 100 µM; with MALME-3M melanoma, 67.8 µM; in the experiment with NCI-H522 lung, 50 µM; with OVCAR-4 ovarian, 82.5 µM; with SNB-75 CNS, more than 100 µM. The results for the TGI in the experiment on SR leukemia and in the experiment on UACC-62 melanoma were 60.7 µM and more than 100 µM, respectively.

For `Nc1ncnc2c1ncn2C1OC(CSC(F)(F)F)C(O)C1O` (stereo unspecified), the TGI in the experiment with 786-0 renal, in the experiment with K-562 leukemia, in the experiment on MALME-3M melanoma, in the experiment on NCI-H522 lung, with OVCAR-4 ovarian and in the experiment on SNB-75 CNS was more than 100 µM throughout. In addition, the TGI with UACC-62 melanoma is more than 100 µM.

For `CC1(C)C(c2ccccc2)=NN(O)c2ccccc21`, the TGI with 786-0 renal, with K-562 leukemia, in the experiment on MALME-3M melanoma, in the experiment with NCI-H522 lung, in the experiment with OVCAR-4 ovarian and with SNB-19 CNS was more than 100 µM throughout. Also, the TGI in the experiment with SNB-75 CNS and in the experiment with UACC-62 melanoma was more than 100 µM each time.

For `C[C@@H](C1CCC2C3C(=CC(=O)[C@@]21C)[C@H](C)[C@]1(CCC(=O)O1)C1OC31)[C@H]1C[C@]2(C)O[C@@](C)(O1)OC2(C)C` (stereo partly specified), the TGI with 786-0 renal, in the experiment with K-562 leukemia, in the experiment with NCI-H522 lung, in the experiment with SNB-19 CNS and in the experiment with UACC-62 melanoma was more than 100 µM each time.
